Data on eight molecules can be found in patent US20230116703A1, “NOVEL ERGOLINES AND METHODS OF TREATING MOOD DISORDERS” (priority 2021, published 2023).

The target of one data set is 5-HT1B receptor (Homo sapiens, UniProt P28222). The data set can be described thus: cAMP accumulation agonist assay at 5-HT1B. The format is cell-based. Particulars: cAMP, agonist; for EC50: read-out: 5-HT1B EC50. On the procedure:
Disclosed compounds were tested for agonist activity at several serotonin receptor subtypes (5-HT2A, […], 5-HT2C, and 5-HT1A) using Ca^2+ flux functional assays and the 5-HT1B receptor using a cAMP accumulation assay, with the results summarized in Table 4. […] Potent agonist activity was also observed at the other serotonin receptors tested, although the selectivity profile among the receptors varied across compounds. […]. However, at the same time, the N-propyl compounds were more efficacious agonists at 5-HT2B than the corresponding N-methyl compounds. The selectivity of disclosed compounds for 5-HT2A over 5-HT2C and 5-HT1A was less predictable and varied widely across compounds, ranging from ˜1:6 to ˜20:1 (2C/2A) in the case of 5-HT2C and from ˜1:4 to >100:1 (1A/2A) in the case of 5-HT1A. […] An azetidinyl amide substituent tended to increase potency at 5-HT1A relative to 5-HT2A.
Functional Assay at 5-HT1B. Agonist activity at 5-HT1B was determined using a cAMP accumulation protocol at WuXi AppTec (Hong Kong) Limited according to their standard protocols. Briefly, stably transfected cells were plated in an OptiPlate-384 well plate, incubated at RT for 60 mins, and cAMP standard solution (800 nM, 10 μL) was added to the blank well. Then, 10 μL detection reagent was added to each well, the plate incubated for 60 mins at RT, and the plate read using EnVision.

Data set [1] deals with T1, 5-HT2A receptor (Homo sapiens, UniProt P28223).
T1 construct: host or cells: HEK293
As to the kind of experiment: cell-based. In kind it is cell-based. Particulars: Ca^2+ flux, agonist; for EC50: read-out: 5-HT2A EC50. The procedure: (§1) Functional Assays at 5-HT2A, 5-HT2B, and 5-HT1A. Agonist activity at 5-HT2A, 5-HT2B, and 5-HT1A receptors was determined using a FLIPR Ca^2+ flux assay at WuXi AppTec (Hong Kong) Limited according to their standard protocols. Briefly, stably transfected cells expressing the receptor of interest (HEK293 for 5-HT2A and 5-HT2B; CHO cells for 5-HT1A) were grown and plated in a 384 well plate and incubated at 37° C. and 5% CO2 overnight. A solution of 250 mM probenecid in 1 mL FLIPR assay buffer was prepared fresh. This was combined with a fluorescent dye (Fluo-4 Direct™) to make a final assay concentration of 2.5 mM. […] The fluorescent dye was then added to the assay plate along with assay buffer to a final volume of 40 μL. The cell plate was incubated for 50 min at 37° C. and 5% CO2 and placed into the FLIPR Tetra along with the compound plate. 10 μL of references and compounds were then transferred from the compound plate into the cell plate and the fluorescent signal was read.

A short description of data set [2]: Metabolic stability in mouse liver microsomes (MLM). In kind it is in vitro ADME. Particulars: 0.50 mg protein per mL; for t1/2: MLM (CD-1), 1 μM; for microsomal CLint at 1 μM: mouse, pooled mouse liver microsomes, pH 7.4, MLM (CD-1). An excerpt: MLM Stability Pooled MLM from CD-1 mice (BIOIVT M00501) were used.
Data set [3] concerns the target T1, 5-HT2A receptor. The data set can be described thus: biochemical. In kind it is binding. Particulars: 1 nM [^3H]ketanserin, HEK293 stable cell line; read-out: 5-HT2A Receptor Ki (nM) ([^3H]ketanserin). The procedure:
Affinity of the test compounds for the 5-HT2A receptor was determined in radioligand binding experiments with [^3H]ketanserin by WuXi AppTec (Hong Kong) Limited, using methods adapted from the literature and under conditions described in Table 1.

Data set [4] in a line: Metabolic stability in rat liver microsomes (RLM). Particulars: for t1/2: RLM, 0.50 mg protein per mL; for microsomal CLint at 1 μM: both, rat, pooled rat liver microsomes, pH 7.4.
Data set [5] is described as follows: Metabolic stability in human liver microsomes (HLM). In kind it is in vitro ADME. Particulars: for t1/2: 1 μM, 0.50 mg protein per mL. An excerpt:
HLM Stability. Pooled HLM from adult male and female donors (Corning 452117) were used.

The target in a further data set is T2, 5-HT2B receptor (Homo sapiens, UniProt P41595).
T2 construct: host or cells: HEK293
As to the kind of experiment: cell-based. Particulars: Ca^2+ flux, agonist; for EC50: read-out: 5-HT2B EC50. The procedure:
as §1

In another data set the target is T3, 5-HT1A receptor (Homo sapiens, UniProt P08908).
T3 construct: host or cells: CHO cells
T3 sequence (P08908 1-422): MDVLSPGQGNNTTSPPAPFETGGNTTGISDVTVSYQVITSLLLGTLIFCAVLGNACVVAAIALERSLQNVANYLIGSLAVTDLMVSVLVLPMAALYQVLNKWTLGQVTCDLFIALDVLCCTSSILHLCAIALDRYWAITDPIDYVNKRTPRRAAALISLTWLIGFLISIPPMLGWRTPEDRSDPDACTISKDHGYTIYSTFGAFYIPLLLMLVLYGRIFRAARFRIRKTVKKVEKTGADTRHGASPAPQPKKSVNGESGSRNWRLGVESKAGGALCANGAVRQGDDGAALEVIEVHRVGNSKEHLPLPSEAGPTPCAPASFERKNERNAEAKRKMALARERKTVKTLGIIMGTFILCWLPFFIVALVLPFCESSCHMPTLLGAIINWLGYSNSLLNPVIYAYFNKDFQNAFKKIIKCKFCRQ
As to the kind of experiment: cell-based. Particulars: Ca^2+ flux, agonist; for EC50: read-out: 5-HT1A EC50. The procedure: as §1

The mark [6] stands for this setting: both sexes, human, pooled human liver microsomes, pH 7.4, 0.50 mg protein per mL.

A value given as a limit tells only on which side of the number the result lay.

T1 sequence (P28223 whole entry): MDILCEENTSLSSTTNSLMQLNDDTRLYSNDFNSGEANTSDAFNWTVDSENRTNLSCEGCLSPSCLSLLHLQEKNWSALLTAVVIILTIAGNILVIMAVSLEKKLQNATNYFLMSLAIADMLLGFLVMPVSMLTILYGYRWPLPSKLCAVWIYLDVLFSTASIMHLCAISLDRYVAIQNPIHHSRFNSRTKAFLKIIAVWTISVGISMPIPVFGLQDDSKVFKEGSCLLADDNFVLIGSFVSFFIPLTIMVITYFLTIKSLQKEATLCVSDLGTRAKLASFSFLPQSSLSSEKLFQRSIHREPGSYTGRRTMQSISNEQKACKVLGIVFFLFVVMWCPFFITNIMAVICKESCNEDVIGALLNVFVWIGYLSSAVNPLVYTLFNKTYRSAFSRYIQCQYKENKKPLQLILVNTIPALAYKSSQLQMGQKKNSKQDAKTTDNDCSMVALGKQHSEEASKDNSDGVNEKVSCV
T2 sequence (P41595 whole entry): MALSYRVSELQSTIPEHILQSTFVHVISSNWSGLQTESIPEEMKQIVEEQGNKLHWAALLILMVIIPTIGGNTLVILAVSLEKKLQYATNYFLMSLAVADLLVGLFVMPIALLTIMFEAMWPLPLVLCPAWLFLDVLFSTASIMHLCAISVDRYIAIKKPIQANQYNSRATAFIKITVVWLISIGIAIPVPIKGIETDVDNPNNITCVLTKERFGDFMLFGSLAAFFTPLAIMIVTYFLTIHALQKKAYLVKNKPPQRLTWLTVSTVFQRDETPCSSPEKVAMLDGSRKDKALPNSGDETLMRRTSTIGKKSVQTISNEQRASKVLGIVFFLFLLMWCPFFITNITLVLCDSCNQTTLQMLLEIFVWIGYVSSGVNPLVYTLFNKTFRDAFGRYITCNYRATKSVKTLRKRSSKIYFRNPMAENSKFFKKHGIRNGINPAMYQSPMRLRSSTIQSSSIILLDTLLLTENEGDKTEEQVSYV
Sequence of 5-HT1B receptor (P28222 whole entry): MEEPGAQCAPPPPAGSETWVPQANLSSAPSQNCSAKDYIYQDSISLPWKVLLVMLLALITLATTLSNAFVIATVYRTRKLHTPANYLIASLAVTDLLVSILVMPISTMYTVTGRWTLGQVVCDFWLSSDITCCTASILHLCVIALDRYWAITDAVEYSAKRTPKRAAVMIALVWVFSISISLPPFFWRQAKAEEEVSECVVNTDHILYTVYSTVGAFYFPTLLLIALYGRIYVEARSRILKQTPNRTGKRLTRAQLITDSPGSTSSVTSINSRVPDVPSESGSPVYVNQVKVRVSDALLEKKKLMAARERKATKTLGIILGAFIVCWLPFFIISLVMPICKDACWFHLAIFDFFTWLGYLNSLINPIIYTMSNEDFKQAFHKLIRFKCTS

`CCN(CC)C(=O)[C@@H]1C=C2c3cccc4[nH]cc(c34)C[C@H]2N(Cc2ccccc2O)C1` [Compound 16, (6aR,9R)—N,N-diethyl-7-(2-hydroxybenzyl)-4,6,6a,7,8,9-hexahydroindolo[4,3-fg]quinoline-9-carboxamide]: the EC50 (usually the concentration that produces a half-maximal response) is 0.682 µM at 5-HT1B receptor, 0.547 µM at 5-HT2A receptor [1], greater than 10 µM on 5-HT2B receptor and greater than 10 µM at 5-HT1A receptor. Also, the “t1/2” value in data set [2] turned out to be 1.3 min; in data set [4], 2.2 min; in data set [5], 4.9 min. Also, the microsomal CLint – broadly, the rate of metabolic loss divided by the concentration – at 1 μM in data set [2] was 1050 µL/min/mg; in data set [4], 616 µL/min/mg; in data set [5] (setting [6]) it was 286 µL/min/mg. Further, the Ki (usually the equilibrium dissociation constant of an inhibitor or competing ligand from its target) at 5-HT2A receptor [3] amounted to 2.18 nM.
On to `CCN(CC)C(=O)[C@@H]1C=C2c3cccc4[nH]cc(c34)C[C@H]2N(Cc2cccc(OC)c2)C1` [Compound 18, (6aR,9R)—N,N-diethyl-7-(3-methoxybenzyl)-4,6,6a,7,8,9-hexahydroindolo[4,3-fg]quinoline-9-carboxamide], for which the EC50 at 5-HT1B receptor was 1.78 µM; at 5-HT2A receptor [1] it was 0.227 µM; at 5-HT2B receptor, greater than 10 µM; on 5-HT1A receptor, greater than 10 µM. Besides, the “t1/2” value is on record as 2.6 min in data set [2], 5.3 min in data set [4] and 13.6 min in data set [5]. Further, the results for the microsomal CLint at 1 μM in data set [2], in data set [4] and in data set [5] (setting [6]) were 524 µL/min/mg, 263 µL/min/mg and 102 µL/min/mg, respectively. For the same molecule, on 5-HT2A receptor [3], the Ki worked out at 3.41 nM.
As to `CCN(CC)C(=O)[C@@H]1C=C2c3cccc4[nH]cc(c34)C[C@H]2N(Cc2ccc(OC)cc2)C1` [Compound 19, (6aR,9R)—N,N-diethyl-7-(4-methoxybenzyl)-4,6,6a,7,8,9-hexahydroindolo[4,3-fg]quinoline-9-carboxamide], the EC50 is 5.85 µM at 5-HT1B receptor, 2.96 µM on 5-HT2A receptor [1], greater than 10 µM at 5-HT2B receptor and greater than 10 µM at 5-HT1A receptor. Besides, the “t1/2” value in data set [2] is listed as 7.2 min; in data set [4] it was 10.0 min; in data set [5] it was 16.8 min. In addition, the values for the microsomal CLint at 1 μM in data set [2], in data set [4] and in data set [5] (setting [6]) were 193 µL/min/mg, 139 µL/min/mg and 82.7 µL/min/mg, respectively. Further, the Ki on 5-HT2A receptor [3] was found to be 5.58 nM. Moreover, the “5-HT1A % Act @ Max Dose” value at 5-HT1A receptor was −0.65%.
For `CCN(CC)C(=O)[C@@H]1C=C2c3cccc4[nH]cc(c34)C[C@H]2N(CCc2cccc(OC)c2)C1` [Compound 20, (6aR,9R)—N,N-diethyl-7-(3-methoxyphenethyl)-4,6,6a,7,8,9-hexahydroindolo[4,3-fg]quinoline-9-carboxamide], the EC50 was greater than 10 µM at 5-HT1B receptor, 0.265 µM on 5-HT2A receptor [1], greater than 10 µM on 5-HT2B receptor and greater than 10 µM at 5-HT1A receptor. For the same molecule, the “t1/2” value turned out to be 0.9 min in data set [2], 1.2 min in data set [4] and 2.1 min in data set [5]. The microsomal CLint at 1 μM in data set [2] amounted to 1550 µL/min/mg; in data set [4] it was 1150 µL/min/mg; in data set [5] (setting [6]) it was 649 µL/min/mg. Also, the Ki at 5-HT2A receptor [3] was 1.03 nM. Besides, on 5-HT2B receptor, the “5-HT2B % Act @ Max Dose” value is 3.60%.
Regarding `CCN(CC)C(=O)[C@@H]1C=C2c3cccc4[nH]cc(c34)C[C@H]2N(CCc2ccc(OC)cc2)C1` [Compound 21, (6aR,9R)—N,N-diethyl-7-(4-methoxyphenethyl)-4,6,6a,7,8,9-hexahydroindolo[4,3-fg]quinoline-9-carboxamide], the EC50 on 5-HT1B receptor is 2.75 µM; on 5-HT2A receptor [1], 0.619 µM; at 5-HT2B receptor it was greater than 10 µM; on 5-HT1A receptor, greater than 10 µM. Besides, the “t1/2” value in data set [2] is given as 1.9 min; in data set [4] it was 4.3 min; in data set [5], 3.8 min. For the same molecule, the microsomal CLint at 1 μM in data set [2] was 717 µL/min/mg; in data set [4], 323 µL/min/mg; in data set [5] (setting [6]) it was 368 µL/min/mg. For the same molecule, the Ki at 5-HT2A receptor [3] turned out to be 1.93 nM. In addition, the “5-HT1A % Act @ Max Dose” value at 5-HT1A receptor came to 8.2%.
Consider `CCN(CC)C(=O)[C@@H]1C=C2c3cccc4[nH]cc(c34)C[C@H]2N(Cc2ccccn2)C1` [Compound 22, (6aR,9R)—N,N-diethyl-7-(pyridin-2-ylmethyl)-4,6,6a,7,8,9-hexahydroindolo[4,3-fg]quinoline-9-carboxamide], for which the EC50 on 5-HT1B receptor was 0.847 µM; on 5-HT2A receptor [1], 0.748 µM; at 5-HT2B receptor, greater than 10 µM; at 5-HT1A receptor, 7.84 µM. Moreover, the “t1/2” value in data set [2] is recorded as 9.2 min; in data set [4], 13.2 min; in data set [5], 23.8 min. In addition, the microsomal CLint at 1 μM in data set [2] was determined as 150 µL/min/mg; in data set [4], 105 µL/min/mg; in data set [5] (setting [6]), 58.2 µL/min/mg. Besides, the Ki at 5-HT2A receptor [3] turned out to be 28.4 nM.
In the case of `CCN(CC)C(=O)[C@@H]1C=C2c3cccc4[nH]cc(c34)C[C@H]2N(CCc2ccccn2)C1` [Compound 23, (6aR,9R)—N,N-diethyl-7-(2-(pyridin-2-yl)ethyl)-4,6,6a,7,8,9-hexahydroindolo[4,3-fg]quinoline-9-carboxamide], the EC50 at 5-HT1B receptor was 0.45 µM; on 5-HT2A receptor [1], 0.512 µM; on 5-HT2B receptor, greater than 10 µM; on 5-HT1A receptor it was greater than 10 µM. Besides, the “t1/2” value is listed as 1.8 min in data set [2], 4.2 min in data set [4] and 7.2 min in data set [5]. Also, the microsomal CLint at 1 μM in data set [2] was determined as 769 µL/min/mg; in data set [4], 332 µL/min/mg; in data set [5] (setting [6]), 193 µL/min/mg. At 5-HT2A receptor [3], the Ki worked out at 26.6 nM.
For `CN1C[C@H](C(=O)N2CCCC2)C=C2c3cccc4[nH]cc(c34)C[C@H]21` [Int22, ((6aR,9R)-7-methyl-4,6,6a,7,8,9-hexahydroindolo[4,3-fg]quinolin-9-yl)(pyrrolidin-1-yl)methanone], at 5-HT1B receptor, the “5-HT1B % Act @ Max Dose” value is recorded as 94.25% and the EC50 was 0.00738 µM. Also, at 5-HT2A receptor [1], the “5-HT2A % Act @ Max Dose” value is given as 89.65% and the EC50 came to 0.0211 µM. The Ki on 5-HT2A receptor [3] is 14.9 nM. In data set [5] (setting [6]), the half-life (in general, the time needed for the level to fall by half in the phase considered) at 1 μM was greater than 145 min and the microsomal CLint at 1 μM is less than 9.6 µL/min/mg. In addition, at 5-HT2B receptor, the “5-HT2B % Act @ Max Dose” value is 21.35% and the EC50 amounted to 0.0552 µM. At 5-HT1A receptor, the “5-HT1A % Act @ Max Dose” value is listed as 103.7% and the EC50 stood at 0.00882 µM.
